# Data published in PubChem BioAssay AID2060509 (Molecular Pharmacology Branch, DTP, NCI, 2025).
# Test system: 485176-168-R4-J1-PDC spheroids with HUVEC/MSC, viability
# Experiment: Anticancer human tumor 485176-168-R4-J1-PDC patient-derived pancreatic adenocarcinoma cell line growth inhibition [GQUAD]
# Settings: for IC50: curve of first compound; for viability, T/C: stronger effect = lower value
# Outline: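 Tumor cells were grown as complex spheroids with HUVEC endothelial cells and mesenchymal stem cells as stroma. G-quadruplex stabilizers were combined with targeted agents over half-log dilutions from near the clinical Cmax, or from 10 microM.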
# [1] = second compound 0.0316 µM, first compound 0.0316 µM
# [2] = second compound 0.0316 µM, first compound 0.1 µM
# [3] = second compound 0.0316 µM, first compound 0.316 µM
# [4] = second compound 0.0316 µM, first compound 1 µM
# [5] = second compound 0.0316 µM, first compound 3.16 µM
# [6] = second compound 0.0316 µM, first compound 10 µM
# [7] = second compound 0.1 µM, first compound 0.0316 µM
# [8] = second compound 0.1 µM, first compound 0.1 µM
# [9] = second compound 0.1 µM, first compound 0.316 µM
# [10] = second compound 0.1 µM, first compound 1 µM
# [11] = second compound 0.1 µM, first compound 3.16 µM
# [12] = second compound 0.1 µM, first compound 10 µM
# [13] = second compound 0.316 µM, first compound 0.0316 µM
# [14] = second compound 0.316 µM, first compound 0.1 µM
# [15] = second compound 0.316 µM, first compound 0.316 µM
# [16] = second compound 0.316 µM, first compound 1 µM
# [17] = second compound 0.316 µM, first compound 3.16 µM
# [18] = second compound 0.316 µM, first compound 10 µM
# [19] = second compound 1 µM, first compound 0.0316 µM
# [20] = second compound 1 µM, first compound 0.1 µM
# [21] = second compound 1 µM, first compound 0.316 µM
# [22] = second compound 1 µM, first compound 1 µM
# [23] = second compound 1 µM, first compound 3.16 µM
# [24] = second compound 1 µM, first compound 10 µM
# [25] = second compound 3.16 µM, first compound 0.0316 µM
# [26] = second compound 3.16 µM, first compound 0.1 µM
# [27] = second compound 3.16 µM, first compound 0.316 µM
# [28] = second compound 3.16 µM, first compound 1 µM
# [29] = second compound 3.16 µM, first compound 3.16 µM
# [30] = second compound 3.16 µM, first compound 10 µM
# [31] = second compound 10 µM, first compound 0.0316 µM
# [32] = second compound 10 µM, first compound 0.1 µM
# [33] = second compound 10 µM, first compound 0.316 µM
# [34] = second compound 10 µM, first compound 1 µM
# [35] = second compound 10 µM, first compound 3.16 µM
# [36] = second compound 10 µM, first compound 10 µM
# 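Further: spheroids exposed to compounds for seven days before readout.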
# 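Wherever viability, T/C is given: percent viability relative to DMSO vehicle control wells as 100%.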
smiles,measurement,setting,value
CC1COCCN1c1cc(C2(S(C)(=N)=O)CC2)nc(-c2ccnc3[nH]ccc23)n1 (stereo not drawn) + CN(C)c1ccc(Nc2c3ccc(NC(=O)CCN4CCCC4)cc3nc3cc(NC(=O)CCN4CCCC4)ccc23)cc1,IC50,second compound 0.0316 µM,2210 nM
same,IC50,second compound 0.1 µM,1870 nM
same,IC50,second compound 0.316 µM,2110 nM
same,IC50,second compound 1 µM,2070 nM
same,IC50,second compound 3.16 µM,1990 nM
same,IC50,second compound 10 µM,1490 nM
same,"viability, T/C",[1],92.4%
same,"viability, T/C",[2],85.2%
same,"viability, T/C",[3],86.2%
same,"viability, T/C",[4],75%
same,"viability, T/C",[5],38.7%
same,"viability, T/C",[6],15.9%
same,"viability, T/C",[7],100%
same,"viability, T/C",[8],81.9%
same,"viability, T/C",[9],84.6%
same,"viability, T/C",[10],69.9%
same,"viability, T/C",[11],33.6%
same,"viability, T/C",[12],17.6%
same,"viability, T/C",[13],103%
same,"viability, T/C",[14],101%
same,"viability, T/C",[15],97.8%
same,"viability, T/C",[16],76.3%
same,"viability, T/C",[17],35.7%
same,"viability, T/C",[18],15.6%
same,"viability, T/C",[19],115%
same,"viability, T/C",[20],85.6%
same,"viability, T/C",[21],109%
same,"viability, T/C",[22],70.2%
same,"viability, T/C",[23],38.5%
same,"viability, T/C",[24],18%
same,"viability, T/C",[25],90.8%
same,"viability, T/C",[26],99.2%
same,"viability, T/C",[27],97.5%
same,"viability, T/C",[28],69.1%
same,"viability, T/C",[29],37.1%
same,"viability, T/C",[30],15.8%
same,"viability, T/C",[31],88.2%
same,"viability, T/C",[32],100%
same,"viability, T/C",[33],81.2%
same,"viability, T/C",[34],59.5%
same,"viability, T/C",[35],32.8%
same,"viability, T/C",[36],20.3%
Nc1ccn(C2OC(CO)C(O)C2(F)F)c(=O)n1 (stereo not drawn) + Cc1[nH]c2ccc(F)cc2c1-c1nc2c3cccnc3c3ncccc3c2[nH]1,IC50,second compound 0.0316 µM,50.5 nM
same,IC50,second compound 0.1 µM,40 nM
same,IC50,second compound 0.316 µM,42.1 nM
same,IC50,second compound 1 µM,54.1 nM
same,IC50,second compound 3.16 µM,54.4 nM
same,IC50,second compound 10 µM,57.4 nM
same,"viability, T/C",[1],71.8%
same,"viability, T/C",[2],18.2%
same,"viability, T/C",[3],10.3%
same,"viability, T/C",[4],9.1%
same,"viability, T/C",[5],11.2%
same,"viability, T/C",[6],10.4%
same,"viability, T/C",[7],56.6%
same,"viability, T/C",[8],24.9%
same,"viability, T/C",[9],9.79%
same,"viability, T/C",[10],9.89%
same,"viability, T/C",[11],11.8%
same,"viability, T/C",[12],9.87%
same,"viability, T/C",[13],58%
same,"viability, T/C",[14],25.7%
same,"viability, T/C",[15],12%
same,"viability, T/C",[16],10.1%
same,"viability, T/C",[17],9.86%
same,"viability, T/C",[18],11.9%
same,"viability, T/C",[19],71.3%
same,"viability, T/C",[20],25.6%
same,"viability, T/C",[21],9.77%
same,"viability, T/C",[22],10.7%
same,"viability, T/C",[23],12.2%
same,"viability, T/C",[24],12.2%
same,"viability, T/C",[25],69.7%
same,"viability, T/C",[26],27.8%
same,"viability, T/C",[27],10.8%
same,"viability, T/C",[28],12.1%
same,"viability, T/C",[29],11.2%
same,"viability, T/C",[30],13.9%
same,"viability, T/C",[31],71.8%
same,"viability, T/C",[32],29.8%
same,"viability, T/C",[33],10.8%
same,"viability, T/C",[34],10.4%
same,"viability, T/C",[35],10.2%
same,"viability, T/C",[36],10.8%
CC1COCCN1c1cc(C2(S(C)(=N)=O)CC2)nc(-c2ccnc3[nH]ccc23)n1 (stereo not drawn) + Cc1[nH]c2ccc(F)cc2c1-c1nc2c3cccnc3c3ncccc3c2[nH]1,IC50,second compound 0.0316 µM,1350 nM
same,IC50,second compound 0.1 µM,1840 nM
same,IC50,second compound 0.316 µM,1830 nM
same,IC50,second compound 1 µM,1910 nM
same,IC50,second compound 3.16 µM,1260 nM
same,IC50,second compound 10 µM,1240 nM
same,"viability, T/C",[1],110%
same,"viability, T/C",[2],90.4%
same,"viability, T/C",[3],97.8%
same,"viability, T/C",[4],53.6%
same,"viability, T/C",[5],32%
same,"viability, T/C",[6],15.5%
same,"viability, T/C",[7],89.4%
same,"viability, T/C",[8],103%
same,"viability, T/C",[9],85.5%
same,"viability, T/C",[10],69.9%
same,"viability, T/C",[11],32.7%
same,"viability, T/C",[12],16.4%
same,"viability, T/C",[13],88.3%
same,"viability, T/C",[14],103%
same,"viability, T/C",[15],84.8%
same,"viability, T/C",[16],66.9%
same,"viability, T/C",[17],35.2%
same,"viability, T/C",[18],14.1%
same,"viability, T/C",[19],92%
same,"viability, T/C",[20],97.3%
same,"viability, T/C",[21],96.5%
same,"viability, T/C",[22],66.7%
same,"viability, T/C",[23],36.4%
same,"viability, T/C",[24],13.7%
same,"viability, T/C",[25],83.5%
same,"viability, T/C",[26],89.9%
same,"viability, T/C",[27],75.5%
same,"viability, T/C",[28],57.6%
same,"viability, T/C",[29],24.7%
same,"viability, T/C",[30],14.7%
same,"viability, T/C",[31],84.7%
same,"viability, T/C",[32],104%
same,"viability, T/C",[33],80.9%
same,"viability, T/C",[34],55.6%
same,"viability, T/C",[35],26.4%
same,"viability, T/C",[36],13.8%
CC1COCCN1c1cc(C2(O)CC3CCC(C2)O3)c2cnn(-c3ccn[nH]3)c2n1 (stereo not drawn) + Cc1[nH]c2ccc(F)cc2c1-c1nc2c3cccnc3c3ncccc3c2[nH]1,IC50,second compound 0.0316 µM,71.9 nM
same,IC50,second compound 0.1 µM,67.9 nM
same,IC50,second compound 0.316 µM,118 nM
same,IC50,second compound 1 µM,67.5 nM
same,IC50,second compound 3.16 µM,46.6 nM
same,IC50,second compound 10 µM,59.9 nM
same,"viability, T/C",[1],67.4%
same,"viability, T/C",[2],43%
same,"viability, T/C",[3],17.3%
same,"viability, T/C",[4],10.1%
same,"viability, T/C",[5],11.5%
same,"viability, T/C",[6],7.63%
same,"viability, T/C",[7],66.5%
same,"viability, T/C",[8],41.6%
same,"viability, T/C",[9],14.1%
same,"viability, T/C",[10],8.96%
same,"viability, T/C",[11],12%
same,"viability, T/C",[12],8.29%
same,"viability, T/C",[13],56.8%
same,"viability, T/C",[14],55.5%
same,"viability, T/C",[15],16.6%
same,"viability, T/C",[16],8.98%
same,"viability, T/C",[17],11.9%
same,"viability, T/C",[18],8.2%
same,"viability, T/C",[19],61.8%
same,"viability, T/C",[20],44%
same,"viability, T/C",[21],19.3%
same,"viability, T/C",[22],12.1%
same,"viability, T/C",[23],10.7%
same,"viability, T/C",[24],8.42%
same,"viability, T/C",[25],57.6%
same,"viability, T/C",[26],35%
same,"viability, T/C",[27],17.2%
same,"viability, T/C",[28],9.84%
same,"viability, T/C",[29],11.1%
same,"viability, T/C",[30],8.07%
same,"viability, T/C",[31],64.1%
same,"viability, T/C",[32],38.7%
same,"viability, T/C",[33],13.5%
same,"viability, T/C",[34],11.5%
same,"viability, T/C",[35],10.8%
same,"viability, T/C",[36],8.33%
